{
  "source": "patent EP4624497A1",
  "about": "“PHOSPHOEN[…] PROBE, PREPARATION METHOD THEREFOR AND APPLICATION THEREOF” (priority 2022, dated 2024)",
  "assay_in_all_cases": "phosphoenolpyruvate titration of purified optical probe (fluorescence ratio)",
  "type_in_all_cases": "binding",
  "settings_in_all_cases": "phosphoenolpyruvate 0 to 10 mM, purified probe treated 10 minutes, ex 420/485 nm, em 528 nm",
  "key": {"[1]": {"target": "T1, Thermus thermophilus TtPFK optical probe 254/255-TtPFK-I253G/Q254L/R255L/G256F-cpYFP-Y1P (Thermus thermophilus, UniProt P21777, form not given/G256F/I253G/Q254L/R255L)", "T1 construct": "the numbering corresponds to the full length of the phosphoenolpyruvate-sensitive polypeptide; His-tag; made in house; host or cells: E. coli BL21 (DE3)", "T1 sequence (P21777 other isoform, or with tags, fused parts or gaps, stated change not applied)": "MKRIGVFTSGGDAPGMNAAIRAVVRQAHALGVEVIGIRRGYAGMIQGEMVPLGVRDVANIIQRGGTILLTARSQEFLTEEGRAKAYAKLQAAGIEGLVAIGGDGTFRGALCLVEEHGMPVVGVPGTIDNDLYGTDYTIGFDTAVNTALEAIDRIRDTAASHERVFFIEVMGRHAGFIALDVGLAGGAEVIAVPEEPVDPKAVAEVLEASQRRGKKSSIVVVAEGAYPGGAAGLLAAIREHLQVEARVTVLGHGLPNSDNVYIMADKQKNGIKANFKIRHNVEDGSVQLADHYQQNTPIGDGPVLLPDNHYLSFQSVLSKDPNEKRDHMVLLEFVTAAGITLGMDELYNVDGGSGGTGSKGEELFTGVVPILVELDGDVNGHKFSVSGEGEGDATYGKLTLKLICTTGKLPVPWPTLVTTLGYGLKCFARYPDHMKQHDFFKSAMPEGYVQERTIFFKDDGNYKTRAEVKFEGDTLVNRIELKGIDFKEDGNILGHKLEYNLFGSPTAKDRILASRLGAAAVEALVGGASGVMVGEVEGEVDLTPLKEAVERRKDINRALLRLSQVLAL", "protocol": "(§1) • 1. The expression vectors (for example, a phosphoenolpyruvate optical probe expression vector based on pCDF.) were transformed into BL21 (DE3) cells, incubated inverted overnight, and the clones were picked from the plates into 250 mL Erlenmeyer flasks, placed in a shaker at 37 °C and incubated at 220 rpm to OD=0.4-0.8, then 1/1000 (V/V) of IPTG (1 M) was added to induce expression at 18 °C for 24-36 hours. • 2. Upon completion of inducible expression, cells were harvested by centrifugation at 4000 rpm for 30 min, resuspended in 50 mM phosphate buffer and disrupted ultrasonically until the broth were clear, centrifuged at 9600 rpm at 4 °C for 20 min. • 3. The centrifuged supernatant was used to obtain protein by purification through a self-packed nickel column affinity chromatography column, and the protein obtained after nickel column affinity chromatography was further used to obtain protein dissolved in 100 mM HEPES buffer (pH 7.4). • 4. After purified proteins were subjected to SDS-PAGE, probes were diluted to a protein solution having a final concentration of 0.2-5 µM using assay buffer (100 mm HEPES, 100 mM NaCl, pH 7.4). Phosphoenolpyruvate was formulated as a stock solution at a final concentration of 50 mM with the assay buffer (100 mM HEPES, 100 mM NaCl, pH 7.4). • 5. 100 µl 1 µM of protein solution was taken, incubated at 37 °C for 10 min, phosphoenolpyruvate was added for titration, and the fluorescence intensity of 528 nm emission after 420 nm and 485 nm fluorescence excitation of the protein was measured. The fluorescence excitation and emission determination of the samples were done using a multifunctional fluorescence microplate reader. • 6. 100 µl 1 µM of protein solution was taken, incubated at 37 °C for 10 min, and phosphoenolpyruvate was added to determine the absorption and fluorescence spectra of the proteins. Determination of the absorption and fluorescence spectra of the samples was done by spectrophotometer and spectrofluorometer.\n(§2) The recombinant plasmids of the mutation library were transformed into BL21 (DE3) to induce expression, and the purified probe protein was subjected to phosphoenolpyruvate-responsive screening, dividing the detection signal of the fusion fluorescent protein containing 2 mM phosphoenolpyruvate by that of the fusion fluorescent protein without phosphoenolpyruvate. […]"}, "[2]": {"target": "T2, Thermus thermophilus TtPFK optical probe 254/255-TtPFK-cpYFP variant, TtPFK I253F/Q254L/R255L/G256F, cpYFP Y1G/N246F (Thermus thermophilus, UniProt P21777, form not given/G256F/I253F/Q254L/R255L)", "T2 construct": "the numbering corresponds to the full length of the phosphoenolpyruvate-sensitive polypeptide; His-tag; made in house; host or cells: E. coli BL21 (DE3)", "T2 sequence (P21777 other isoform, or with tags, fused parts or gaps, stated change not applied)": "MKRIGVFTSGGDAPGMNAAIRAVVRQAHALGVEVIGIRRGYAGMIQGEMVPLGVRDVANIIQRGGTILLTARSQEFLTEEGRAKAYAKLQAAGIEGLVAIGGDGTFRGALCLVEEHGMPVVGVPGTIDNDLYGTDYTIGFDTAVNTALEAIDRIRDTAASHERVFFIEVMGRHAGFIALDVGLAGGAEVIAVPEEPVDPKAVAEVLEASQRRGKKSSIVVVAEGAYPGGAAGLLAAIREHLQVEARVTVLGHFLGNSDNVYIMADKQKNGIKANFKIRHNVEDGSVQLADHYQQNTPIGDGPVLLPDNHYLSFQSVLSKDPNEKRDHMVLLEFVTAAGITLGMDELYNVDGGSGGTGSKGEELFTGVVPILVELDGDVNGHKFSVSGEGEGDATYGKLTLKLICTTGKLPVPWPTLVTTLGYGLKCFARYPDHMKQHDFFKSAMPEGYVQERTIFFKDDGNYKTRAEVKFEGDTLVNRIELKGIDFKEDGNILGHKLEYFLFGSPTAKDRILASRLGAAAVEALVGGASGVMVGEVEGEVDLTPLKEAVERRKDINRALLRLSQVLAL", "protocol": "as §1, §2"}, "[3]": {"target": "T3, Thermus thermophilus TtPFK optical probe 254/255-TtPFK-cpYFP variant, TtPFK V54K/I253K/Q254L/R255L/G256F, cpYFP Y1S (Thermus thermophilus, UniProt P21777, form not given/G256F/I253K/Q254L/R255L/V54K)", "T3 construct": "the numbering corresponds to the full length of the phosphoenolpyruvate-sensitive polypeptide; His-tag; made in house; host or cells: E. coli BL21 (DE3)", "T3 sequence (P21777 other isoform, or with tags, fused parts or gaps V54K, form open)": "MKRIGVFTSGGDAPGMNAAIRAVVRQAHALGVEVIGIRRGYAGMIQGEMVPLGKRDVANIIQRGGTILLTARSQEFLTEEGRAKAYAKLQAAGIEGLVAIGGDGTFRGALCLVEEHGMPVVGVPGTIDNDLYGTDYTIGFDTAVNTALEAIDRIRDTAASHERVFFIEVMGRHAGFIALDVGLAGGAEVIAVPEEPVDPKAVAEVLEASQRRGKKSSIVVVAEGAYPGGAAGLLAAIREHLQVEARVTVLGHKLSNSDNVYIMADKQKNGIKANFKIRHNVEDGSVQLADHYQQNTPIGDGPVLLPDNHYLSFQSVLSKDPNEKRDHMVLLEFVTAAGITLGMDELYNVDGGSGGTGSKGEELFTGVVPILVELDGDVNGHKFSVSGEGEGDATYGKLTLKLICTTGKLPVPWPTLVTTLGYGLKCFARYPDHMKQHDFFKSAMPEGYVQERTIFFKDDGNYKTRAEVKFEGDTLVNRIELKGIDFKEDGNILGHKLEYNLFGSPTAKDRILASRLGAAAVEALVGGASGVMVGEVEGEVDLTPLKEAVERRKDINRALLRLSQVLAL", "protocol": "as §1\n(§3) For the 254/255-TtPFK-cpYFP obtained in Example 2 and the 254/255-TtPFK-I253G/Q254L/R255L/G256F-cpYFP-Y1P, 254/255-TtPFK-I253K/Q254L/R255L/G256F-cpYFP-Y1S and 254/256-TtPFK-I253Q/Q254L/G256V/G257L-cpYFP-Y1T/N246F optical probes obtained in Example 6, amino acid were mutated at positions R21, R25, V54, R55, V57, A58, N59, I60, I61, R155, G186, R212, G213, K214, K215, S216 and L320 in the phosphoenolpyruvate binding pocket, and at positions R72, R163, R172 and R246 in the ATP binding pocket to adjust the affinity of the phosphoenolpyruvate optical probe to phosphoenolpyruvate and the substrate specificity. The probes were linearized by reverse PCR, and the sequences of the mutation sites were introduced into the primers. The obtained PCR products were subjected to homologous recombination to obtain plasmids containing the above site mutations. The mutant plasmids were transformed into BL21 (DE3) for induced expression, and the mutant probe proteins were purified for the phosphoenolpyruvate response test. The detection signal of the fusion fluorescent protein containing 2 mM phosphoenolpyruvate was divided by the detection signal of the fusion fluorescent protein without phosphoenolpyruvate. […]"}, "[4]": {"target": "T4, Thermus thermophilus TtPFK optical probe 254/256-TtPFK-cpYFP variant, TtPFK N59D/I253Q/Q254L/G256V/G257L, cpYFP Y1T/N246F (Thermus thermophilus, UniProt P21777, form not given/G256V/G257L/I253Q/N59D/Q254L)", "T4 construct": "His-tag; made in house; host or cells: E. coli BL21 (DE3)", "T4 sequence (P21777 other isoform, or with tags, fused parts or gaps N59D, form open)": "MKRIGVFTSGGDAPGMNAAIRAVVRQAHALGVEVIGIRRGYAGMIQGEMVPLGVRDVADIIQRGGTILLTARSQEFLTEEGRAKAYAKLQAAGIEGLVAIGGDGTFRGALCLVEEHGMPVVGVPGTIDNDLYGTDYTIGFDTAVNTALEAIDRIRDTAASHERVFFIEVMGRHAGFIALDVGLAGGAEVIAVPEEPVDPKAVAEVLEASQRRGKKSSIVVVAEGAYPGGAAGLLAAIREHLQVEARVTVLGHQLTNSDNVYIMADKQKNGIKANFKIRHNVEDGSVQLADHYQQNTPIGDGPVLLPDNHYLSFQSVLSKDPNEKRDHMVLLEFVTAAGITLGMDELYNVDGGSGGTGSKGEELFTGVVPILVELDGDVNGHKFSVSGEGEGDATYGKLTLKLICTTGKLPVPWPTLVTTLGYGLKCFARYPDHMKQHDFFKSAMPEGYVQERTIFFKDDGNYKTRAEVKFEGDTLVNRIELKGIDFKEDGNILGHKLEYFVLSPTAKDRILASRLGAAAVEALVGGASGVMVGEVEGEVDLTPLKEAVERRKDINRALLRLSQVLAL", "protocol": "as §1, §3"}, "[5]": {"target": "T5, Thermus thermophilus TtPFK optical probe 254/255-TtPFK-cpYFP variant, TtPFK N59H/I253G/Q254L/R255L/G256F, cpYFP Y1P (Thermus thermophilus, UniProt P21777, form not given/G256F/I253G/N59H/Q254L/R255L)", "T5 construct": "the numbering corresponds to the full length of the phosphoenolpyruvate-sensitive polypeptide; His-tag; made in house; host or cells: E. coli BL21 (DE3)", "T5 sequence (P21777 other isoform, or with tags, fused parts or gaps N59H, form open)": "as the sequence (P21777 other isoform, or with tags, fused parts or gaps V54K, form open) above, with K54V, N59H, K253G, S255P counted along it", "protocol": "as §1, §3"}, "[6]": {"target": "T6, Thermus thermophilus TtPFK optical probe 254/256-TtPFK-cpYFP variant, TtPFK L320F/I253Q/Q254L/G256V/G257L, cpYFP Y1T/N246F (Thermus thermophilus, UniProt P21777, form not given/G256V/G257L/I253Q/L320F/Q254L)", "T6 construct": "the numbering corresponds to the full length of the phosphoenolpyruvate-sensitive polypeptide; His-tag; made in house; host or cells: E. coli BL21 (DE3), pCDF vector", "T6 sequence (P21777 other isoform, or with tags, fused parts or gaps, stated change not applied)": "as the sequence (P21777 other isoform, or with tags, fused parts or gaps N59D, form open) above, with D59N, L565F counted along it", "protocol": "as §1, §3"}, "[7]": {"target": "T7, Thermus thermophilus TtPFK optical probe 254/255-TtPFK-cpYFP variant, TtPFK V54Q/I253K/Q254L/R255L/G256F, cpYFP Y1S (Thermus thermophilus, UniProt P21777, form not given/G256F/I253K/Q254L/R255L/V54Q)", "T7 construct": "His-tag; made in house; host or cells: E. coli BL21 (DE3)", "T7 sequence (P21777 other isoform, or with tags, fused parts or gaps V54Q, form open)": "as the sequence (P21777 other isoform, or with tags, fused parts or gaps V54K, form open) above, with K54Q counted along it", "protocol": "as §1, §3"}, "[8]": {"target": "T8, Thermus thermophilus TtPFK optical probe 254/256-TtPFK-cpYFP variant, TtPFK R212M/I253Q/Q254L/G256V/G257L, cpYFP Y1T/N246F (Thermus thermophilus, UniProt P21777, form not given/G256V/G257L/I253Q/Q254L/R212M)", "T8 construct": "the numbering corresponds to the full length of the phosphoenolpyruvate-sensitive polypeptide; His-tag; made in house; host or cells: E. coli BL21 (DE3)", "T8 sequence (P21777 other isoform, or with tags, fused parts or gaps R212M, form open)": "as the sequence (P21777 other isoform, or with tags, fused parts or gaps N59D, form open) above, with D59N, R212M counted along it", "protocol": "as §1, §3"}},
  "data": [
    {"smiles": "C=C(OP(=O)(O)O)C(=O)O", "note": "[phosphoenolpyruvate, Phosphoenolpyruvate]", "values": [
      {"measurement": "Kd", "setting": "[1]", "result": 30.9, "unit": "µM"},
      {"measurement": "Kd", "setting": "[2]", "result": 5.56, "unit": "µM"},
      {"measurement": "Kd", "setting": "[3]", "result": 129, "unit": "µM"},
      {"measurement": "Kd", "setting": "[4]", "result": 374, "unit": "µM"},
      {"measurement": "Kd", "setting": "[5]", "result": 178, "unit": "µM"},
      {"measurement": "Kd", "setting": "[6]", "result": 1770, "unit": "µM"},
      {"measurement": "Kd", "setting": "[7]", "result": 328, "unit": "µM"},
      {"measurement": "Kd", "setting": "[8]", "result": 714, "unit": "µM"}
    ]}
  ]
}
